According to patent US10105367B2, “Therapeutic thiophene-, furan-, and pyridine-fused azolopyrimidin-5-(6h)-ones” (Dart Neuroscience (Cayman) Ltd., priority 2012, dated 2018):

Molecular target: human PDE1B (Homo sapiens (Human), UniProt Q01064)
Assay: PDE1B inhibitory assay (IMAP TR-FRET)
Settings: 200 nM FAM-cAMP, Calmodulin, CaCl2; for PDE1B pIC50: negative log of half-maximal molar inhibitory concentration; for IC50: PDE1B pIC50, negative log of half-maximal molar inhibitory concentration
Protocol: PDE1B inhibition was determined by an IMAP TR-FRET assay.
After a brief centrifugation, the plates were incubated for 30 minutes at room temperature. The assay was terminated by adding 5 μL IMAP binding reagent/Tb complex (Molecular Devices, Sunnyvale, Calif.) to each well.
Plates were incubated 1 hour at room temperature and read on a Viewlux multimode plate reader (Perkin Elmer). The instrument was set to excite using the DUG11 filter and measure using 490/10 nm and 520/10 nm filters. Ratios of acceptor and donor were then calculated.
For IC50 calculations, the values of % efficacy versus a series of compound concentrations were then plotted using non-linear regression analysis of sigmoidal dose-response curves generated with the equation Y=B+(T−B)/1+10((Log EC50−X)×Hill Slope), where Y=percent activity, B=minimum percent efficacy, T=maximum percent efficacy, X=logarithm of compound and Hill Slope=slope factor or Hill coefficient. The IC50 value was determined by the concentration causing a half-maximal percent efficacy.

| SMILES | PDE1B pIC50 | IC50 [nM] |
| --- | --- | --- |
| COc1ccc(Cn2c(=O)n3ncnc3c3c(C)c(CN4CCN5CCC[C@H]5C4)sc32)cc1 [Example 75] | >7 | – |
| C=Cc1cnc2c(c1)c1ncnn1c(=O)n2Cc1ccc(OC)cc1 [Example 214, 6-(4-Methoxybenzyl)-9-vinylpyrido[3,2-e][1,2,4]triazolo[1,5-c]pyrimidin-5(6H)-one] | – | 100 to 1000 |
| COc1ccc(Cn2c(=O)n3ncnc3c3c4c(sc32)COCC4)cc1 [Example 90] | >7 | – |
| O=c1n(Cc2ccccc2Cl)c2sccc2c2ncnn12 [Example 1, 6-(2-Chlorobenzyl)thieno[3,2-e][1,2,4]triazolo[1,5-c]pyrimidin-5(6H)-one] | – | 1000 to 10000 |
| COc1ccc(Cn2c(=O)n3ncnc3c3c4c(sc32)CN(C(=O)C2CCOC2)CC4)cc1 (stereo not shown) [Example 170] | >7 | – |
| COc1ccc(Cn2c(=O)n3ncnc3c3c(C)c(CN4CCN(S(C)(=O)=O)CC4)sc32)cc1 [Example 63] | >7 | – |
| COc1ccc(Cn2c(=O)n3ncnc3c3cc(CN4CCCCC4)cnc32)cc1 [Example 206] | – | 100 to 1000 |
| COc1ccc(Cn2c(=O)n3ncnc3c3cc(N4CCN(S(C)(=O)=O)CC4)cnc32)cc1 [Example 203] | – | 100 to 1000 |
| CCN1CCN(Cc2sc3c(c2C)c2ncnn2c(=O)n3Cc2ccc(OC)cc2)CC1=O [Example 66] | >7 | – |
| COCCN(Cc1cnc2c(c1)c1ncnn1c(=O)n2Cc1ccc(OC)cc1)C(C)C [Example 239] | – | 100 to 1000 |
| Cc1cc2c(s1)n(Cc1ccc(Cl)cc1)c(=O)n1ncnc21 [Example 15] | – | 100 to 1000 |
| COc1ccc(Cn2c(=O)n3ncnc3c3cc(N(C)C4CCOCC4)cnc32)cc1 [Example 200] | – | 100 to 1000 |
| Cc1ccc(Cn2c(=O)n3ncnc3c3c4c(sc32)COCC4)cc1 [Example 88] | – | 100 to 1000 |
| COc1ccc(Cn2c(=O)n3ncnc3c3c4c(sc32)CN(Cc2ncccn2)CC4)cc1 [Example 116] | >7 | – |
| COc1ccc(Cn2c(=O)n3ncnc3c3cc(N4CCN(C5CC5)CC4)cnc32)cc1 [Example 193, 9-(4-Cyclopropylpiperazin-1-yl)-6-(4-methoxybenzyl)pyrido[3,2-e][1,2,4]triazolo[1,5-c]pyrimidin-5(6H)-one] | – | 100 to 1000 |
| COc1ccc(Cn2c(=O)n3ncnc3c3nc(N(C)CCN(C)C)cnc32)cc1 [Example 196] | – | 1000 to 10000 |
| COc1ccc(Cn2c(=O)n3ncnc3c3c(C)c(CN4CCN(C(C)C)CC4)sc32)cc1 [Example 64] | >7 | – |
| O=c1n(Cc2ccccc2Cl)c2sc(Cc3ccccc3)cc2c2ncnn12 [Example 8] | – | 100 to 1000 |
| O=c1n(Cc2cccc(Cl)c2)c2sccc2c2ncnn12 [Example 2] | – | 1000 to 10000 |
| COc1ccc(Cn2c(=O)n3ncnc3c3c(C)c(CO)sc32)cc1 [Example 77, 8-(Hydroxymethyl)-6-(4-methoxybenzyl)-9-methylthieno[3,2-e][1,2,4]triazolo[1,5-c]pyrimidin-5(6H)-one] | – | 100 to 1000 |
| COc1ccc(Cn2c(=O)n3ncnc3c3c4c(sc32)CN(CC2CCCCO2)CC4)cc1 (stereo not shown) [Example 117] | >7 | – |
| COc1ccc(Cn2c(=O)n3ncnc3c3c4c(sc32)CN(C(=O)[C@@H]2CCOC2)CC4)cc1 [Example 169] | >7 | – |
| COc1ccc(Cn2c(=O)n3ncnc3c3cc(CN(C)C4CCOCC4)cnc32)cc1 [Example 237] | – | 1000 to 10000 |
| COc1ccc(Cn2c(=O)n3ncnc3c3ncc(CN4CCCCC4)cc32)cc1 [Example 242] | – | 1000 to 10000 |
| COc1ccc(Cn2c(=O)n3ncnc3c3c(C)c(CN4Cc5ccccc5C4)sc32)cc1 [Example 56] | >7 | – |
| COc1ccc(Cn2c(=O)n3ncnc3c3nc(N(C)C4CCN(C)CC4)cnc32)cc1 [Example 195] | – | 1000 to 10000 |

| SMILES | PDE1B pIC50 | IC50 [nM] |
| --- | --- | --- |
| C[C@@H]1CN(Cc2cnc3c(c2)c2ncnn2c(=O)n3Cc2ccccc2SC(F)(F)F)C[C@H](C)O1 [Example 293] | <5 | – |
| COc1ccc(Cn2c(=O)n3ncnc3c3c4c(sc32)CN(CC2CCOC2)CC4)c(F)c1 (stereo not shown) [Example 140] | >7 | – |
| COc1ccc(Cn2c(=O)n3ncnc3c3c4c(sc32)CN(Cc2ccccn2)CC4)cc1 [Example 120] | >7 | – |
| COc1ccc(Cn2c(=O)n3ncnc3c3cc(CN(C)C)cnc32)cc1 [Example 219] | – | 1000 to 10000 |
| Cc1sc2c(c1C)c1ncnn1c(=O)n2Cc1ccc(Cl)cc1 [Example 26] | – | 100 to 1000 |
| COc1ccc(Cn2c(=O)n3ncnc3c3cc(-n4nc(C)ccc4=O)cnc32)cc1 [Example 192, 6-(4-Methoxybenzyl)-9-(3-methyl-6-oxopyridazin-1(6H)-yl)pyrido[3,2-e][1,2,4]triazolo[1,5-c]pyrimidin-5(6H)-one] | – | 100 to 1000 |
| COCCN1CCN(c2cnc3c(c2)c2ncnn2c(=O)n3Cc2ccc(OC)cc2)CC1 [Example 197] | – | 100 to 1000 |
| O=c1n(Cc2ccccc2)c2sccc2c2ncnn12 [Example 24] | – | 1000 to 10000 |
| COc1ccc(Cn2c(=O)n3ncnc3c3cc(CN4CCCN(C)CC4)cnc32)cc1 [Example 232] | – | 1000 to 10000 |
| COc1ccc(Cn2c(=O)n3ncnc3c3c(C)csc32)cc1 [Example 28] | – | 100 to 1000 |
| COc1ccc(Cn2c(=O)n3ncnc3c3c4c(sc32)CN(C(=O)OC(C)(C)C)CC4)cc1 [Example 80, tert-Butyl 6-(4-methoxybenzyl)-5-oxo-5,6,10,11-tetrahydropyrido[4′,3′:4,5]thieno[3,2-e][1,2,4]triazolo[1,5-c]pyrimidine-9(8H)-carboxylate] | >7 | – |
| COc1ccc(Cn2c(=O)n3ncnc3c3cc(-c4c(C)noc4C)sc32)cc1 [Example 42] | – | 100 to 1000 |
| COc1ccc(Cn2c(=O)n3ncnc3c3c4c(sc32)CN(CC2CCOC2)CC4)cc1 (stereo not shown) [Example 113] | >7 | – |
| COc1ccc(Cn2c(=O)n3ncnc3c3ccc(C(OC)OC)nc32)cc1 [Example 187] | – | 1000 to 10000 |
| O=c1n(Cc2ccc(Cl)cc2)c2sc3c(c2c2ncnn12)CCOC3 [Example 87] | – | 100 to 1000 |
| COc1ccc(Cn2c(=O)n3ncnc3c3c(C)c(CNC4CC4)sc32)cc1 [Example 57] | >7 | – |
| C[C@@H]1CN(Cc2cnc3c(c2)c2ncnn2c(=O)n3Cc2ccc(N3CCCC3=O)cc2)C[C@H](C)O1 [Example 300] | <5 | – |
| COc1ccc(Cn2c(=O)n3ncnc3c3ccc(CN(C)C4CC4)nc32)cc1 [Example 260] | – | 100 to 1000 |
| O=c1n(Cc2ccc(C(F)(F)F)cc2)c2sc3c(c2c2ncnn12)CCOC3 [Example 89] | – | 1000 to 10000 |
| CC1(C)Cc2c(sc3c2c2ncnn2c(=O)n3Cc2ccc(Cl)cc2)CO1 [Example 83] | – | 100 to 1000 |
| COCCN(C)Cc1cnc2c(c1)c1ncnn1c(=O)n2Cc1ccc(OC)cc1 [Example 245] | – | 100 to 1000 |
| CC(C)CCc1cc2c(s1)n(Cc1ccc(-c3ccccc3)cc1)c(=O)n1ncnc21 [Example 21] | <5 | – |
| COc1ccc(Cn2c(=O)n3ncnc3c3c(C)c(CN4CCNCC4)sc32)cc1 [Example 49] | – | 100 to 1000 |
| COc1ccc(Cn2c(=O)n3ncnc3c3c(C)c(CN4CCCOCC4)sc32)cc1 [Example 61] | >7 | – |
| COc1ccc(Cn2c(=O)n3ncnc3c3cc(CN4CC5CC4CO5)cnc32)cc1 (stereo not shown) [Example 218, 9-(2-Oxa-5-azabicyclo[2.2.1]heptan-5-ylmethyl)-6-(4-methoxybenzyl)pyrido[3,2-e][1,2,4]triazolo[1,5-c]pyrimidin-5(6H)-one] | – | 100 to 1000 |
| O=C(C1CC1)N1CCc2c(sc3c2c2ncnn2c(=O)n3Cc2ccc(Cl)cc2F)C1 [Example 164] | >7 | – |
